The values that follow come from patent US6916933B2, “4-pyridinyl-n-acyl-l-phenylalanines” (Hoffman-La Roche Inc., priority 1999, dated 2005).

Molecules are shown by their SMILES.

T1 sequence (P13612 34-1032): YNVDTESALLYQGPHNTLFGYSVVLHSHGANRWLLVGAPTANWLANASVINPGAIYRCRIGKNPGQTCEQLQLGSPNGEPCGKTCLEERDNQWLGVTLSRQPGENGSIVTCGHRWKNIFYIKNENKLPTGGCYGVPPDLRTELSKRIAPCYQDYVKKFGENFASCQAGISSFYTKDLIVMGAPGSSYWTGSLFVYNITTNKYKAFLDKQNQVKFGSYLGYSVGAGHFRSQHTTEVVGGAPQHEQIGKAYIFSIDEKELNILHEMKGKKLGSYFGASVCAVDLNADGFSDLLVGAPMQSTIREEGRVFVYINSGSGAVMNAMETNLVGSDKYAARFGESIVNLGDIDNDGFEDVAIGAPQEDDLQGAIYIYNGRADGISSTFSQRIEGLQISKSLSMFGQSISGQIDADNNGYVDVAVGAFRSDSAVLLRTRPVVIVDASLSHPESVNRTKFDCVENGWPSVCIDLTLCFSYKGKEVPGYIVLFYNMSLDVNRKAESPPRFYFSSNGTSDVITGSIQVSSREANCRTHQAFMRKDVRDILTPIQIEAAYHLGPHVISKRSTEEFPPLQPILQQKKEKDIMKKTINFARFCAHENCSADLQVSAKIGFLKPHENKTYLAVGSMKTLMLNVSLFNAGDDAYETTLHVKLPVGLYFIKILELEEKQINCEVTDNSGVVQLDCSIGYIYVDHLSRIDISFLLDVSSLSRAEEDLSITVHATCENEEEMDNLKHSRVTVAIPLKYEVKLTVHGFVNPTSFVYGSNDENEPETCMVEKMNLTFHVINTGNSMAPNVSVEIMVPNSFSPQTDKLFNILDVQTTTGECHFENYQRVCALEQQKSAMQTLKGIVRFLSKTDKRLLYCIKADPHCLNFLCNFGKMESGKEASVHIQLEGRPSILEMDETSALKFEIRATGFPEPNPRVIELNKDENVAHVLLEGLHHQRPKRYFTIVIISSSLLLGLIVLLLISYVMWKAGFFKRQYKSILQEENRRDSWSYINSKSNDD
T1 sequence (P05556 21-798): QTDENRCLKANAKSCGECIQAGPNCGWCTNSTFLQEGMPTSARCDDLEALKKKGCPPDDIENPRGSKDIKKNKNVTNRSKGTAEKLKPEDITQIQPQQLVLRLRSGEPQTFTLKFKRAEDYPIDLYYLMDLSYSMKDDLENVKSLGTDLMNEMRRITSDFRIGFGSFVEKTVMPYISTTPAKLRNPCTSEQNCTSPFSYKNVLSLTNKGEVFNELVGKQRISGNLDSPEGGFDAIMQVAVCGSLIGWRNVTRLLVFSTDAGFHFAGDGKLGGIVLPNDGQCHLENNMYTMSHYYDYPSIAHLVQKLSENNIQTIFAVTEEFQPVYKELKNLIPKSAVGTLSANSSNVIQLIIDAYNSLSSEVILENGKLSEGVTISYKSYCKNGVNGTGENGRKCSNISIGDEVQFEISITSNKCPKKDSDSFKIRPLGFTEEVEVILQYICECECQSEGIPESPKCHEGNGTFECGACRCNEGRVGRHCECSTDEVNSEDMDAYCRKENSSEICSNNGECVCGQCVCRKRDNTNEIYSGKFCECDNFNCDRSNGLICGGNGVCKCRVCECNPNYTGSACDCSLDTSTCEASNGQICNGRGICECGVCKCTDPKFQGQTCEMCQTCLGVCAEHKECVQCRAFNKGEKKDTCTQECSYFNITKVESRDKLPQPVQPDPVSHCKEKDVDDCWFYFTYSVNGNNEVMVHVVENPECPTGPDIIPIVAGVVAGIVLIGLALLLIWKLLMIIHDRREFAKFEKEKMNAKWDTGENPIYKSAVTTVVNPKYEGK

This assay addresses T1, cell-surface VLA-4 (α4β1 integrin) on Ramos cells binding to immobilized VCAM-1 (Homo sapiens, UniProt P05556+P13612).
T1 construct: Ramos cells bearing cell-surface VLA-4; endogenous in cells; host or cells: Ramos cells (VLA-4); VCAM-1 partner made in CHO cells
Description: Ramos (VLA-4)/VCAM-1 Cell-Based Screening Assay (cell adhesion). The note with it: Calcein-AM labeled Ramos cells, VCAM-1 coated plates. The method, then: Ramos (VLA-4)/VCAM-1 Cell-Based Screening Assay Protocol
Soluble recombinant human VCAM-1 (mixture of 5- and 7-Ig domain) was purified from CHO cell culture media by immunoaffinity chromatography and maintained in a solution containing 0.1 M Tris-glycine (pH 7.5), 0.1 M NaCl, 5 mM EDTA, 1 mM PMSF, […] NaN3 and 10 μg/mL leupeptin. Calcein-AM was purchased from Molecular Probes Inc.
VLA-4 (α4β1 integrin) antagonist activity, defined as ability to compete with cell-surface VLA-4 for binding to immobilized VCAM-1, was quantitated using a Ramos-VCAM-1 cell adhesion assay. Ramos cells bearing cell-surface VLA-4, were labeled with a fluorescent dye (Calcein-AM) and allowed to bind VCAM-1 in the presence or absence of test compounds. A reduction in fluorescence intensity associated with adherent cells (% inhibition) reflected competitive inhibition of VLA-4 mediated cell adhesion by the test compound.
Initially, this entailed coating 96 well plates (Nunc Maxisorp) with recombinant human VCAM-1 (100 ng in 100 μl PBS), sealing each plate and allowing the plates to stand at 4° C. for ≈18 hr. The VCAM-coated plates were subsequently washed twice with 0.05% Tween-20 in PBS, and then blocked for 1 hr (room temperature) with 200 μl of Blocking Buffer (1% BSA/0.02% thimerosal) to reduce non-specific binding. Following the incubation with Blocking Buffer, plates were inverted, blotted and the remaining buffer aspirated. Each plate was then washed with 300 μl PBS, inverted and the remaining PBS aspirated.
Test compounds were dissolved in 100% DMSO and then diluted 1:25 in VCAM Cell Adhesion Assay Buffer (4 mM CaCl2, 4 mM MgCl2 in 50 mM TRIS-HCl, pH 7.5) (final DMSO=4%). A series of eight 1:4 dilutions were performed for each compound (general concentration range of 1 nM-12,500 nM). 100 μl/well of each dilution was added to the VCAM-coated plates, followed by 100 μl of Ramos cells (200,000 cells/well in 1% BSA/PBS). Plates containing test compounds and Ramos cells were allowed to incubate for 45 min at room temperature, after which 165 μl/well PBS was added. Plates were inverted to remove non-adherent cells, blotted and 300 μL/well PBS added. Plates were again inverted, blotted and the remaining buffer gently aspirated. 100 μl Lysis Buffer (0.1% SDS in 50 mM TRIS-HCl, pH 8.5) was added to each well and agitated for 2 min on a rotary shaking platform. The plates were then read for fluorescence intensity on a Cytofluor 2300 (Millipore) fluorecence measurement system (excitation=485 nm, emission=530 nm).
The results are provided in the following Table II (A=IC50<100 nM, B=IC50<10000 nM, C=IC50<5,000 nM): […]
For the molecule `Cc1cccc(Cl)c1C(=O)N[C@@H](Cc1ccc(-c2cccn(C)c2=O)cc1)C(=O)O` [Example 30, N-[(2-chloro-6-methylphenyl)carbonyl]-4-(1-methyl-2-oxo-3-pyridinyl)-L-phenylalanine], the IC50 is under 10 µM.
Then `Cc1ccn(C)c(=O)c1-c1ccc(C[C@H](NC(=O)c2c(Cl)cccc2Cl)C(=O)O)cc1` [Example 31, N-[(2,6-dichlorophenyl)carbonyl]-4-(1,4-dimethyl-2-oxo-3-pyridinyl)-L-phenylalanine], with under 10 µM; and `Cc1cccc(Cl)c1C(=O)N[C@@H](Cc1ccc(-c2c(C)ccn(C)c2=O)cc1)C(=O)O` [Example 32, N-[(2-chloro-6-methylphenyl)carbonyl]-4-(1,4-dimethyl-2-oxo-3-pyridinyl)-L-phenylalanine], with under 10 µM.
As to `Cc1cc(C(F)(F)F)c(-c2ccc(C[C@H](NC(=O)c3c(Cl)cccc3Cl)C(=O)O)cc2)c(=O)n1C` [Example 33, N-[(2,6-dichlorophenyl)carbonyl]-4-[1,6-dimethyl-4-(trifluoromethyl)-2-oxo-3-pyridinyl]-L-phenylalanine], the IC50 was under 0.1 µM.
For `CCc1cccc(C)c1C(=O)N[C@@H](Cc1ccc(-c2c(C(F)(F)F)cc(C)n(C)c2=O)cc1)C(=O)O` [Example 34, N-[(2-ethyl-6-methylphenyl)carbonyl]-4-[1,6-dimethyl-4-(trifluoromethyl)-2-oxo-3-pyridinyl]-L-phenylalanine] the value was under 10 µM.
`Cc1cccc(C(C)C)c1C(=O)N[C@@H](Cc1ccc(-c2c(C(F)(F)F)cc(C)n(C)c2=O)cc1)C(=O)O` [Example 35, N-[(2-(1-methylethyl)-6-methylphenyl)carbonyl]-4-[1,6-dimethyl-4-(trifluoromethyl)-2-oxo-3-pyridinyl]-L-phenylalanine]: the IC50 is under 10 µM.
In the case of `Cc1cccc(Cl)c1C(=O)N[C@@H](Cc1ccc(-c2c(C(F)(F)F)cc(C)n(C)c2=O)cc1)C(=O)O` [Example 36, N-[(2-chloro-6-methylphenyl)carbonyl]-4-[1,6-dimethyl-4-(trifluoromethyl)-2-oxo-3-pyridinyl]-L-phenylalanine], the IC50 was under 0.1 µM.
As for `COCCC1(C(=O)N[C@@H](Cc2ccc(-c3c(C(F)(F)F)cc(C)n(C)c3=O)cc2)C(=O)O)CCCC1` [Example 37, N-[[1-(2-methoxyethyl)cyclopentyl]carbonyl]-4-[1,6-dimethyl-4-(trifluoromethyl)-2-oxo-3-pyridinyl]-L-phenylalanine], the IC50 is under 10 µM.

Usually IC50 stands for the midpoint of a concentration-inhibition curve.
